Data from patent US9879235B2, “Wheat plants having increased resistance to imidazolinone herbicides” (University of Saskatchewan, priority 2001, dated 2018).

Columns and labels:
[1] = system: EM2 line in Einkorn background; test: Field evaluation of herbicide injury, EM2 line; assay type: in vivo, Triticum monococcum; settings: for overall crop injury: three rates of imazamox
Protocol: (§1) Approximately 15,000 seeds of the Triticum monococcum spring habit accession “TM23” was treated with EMS. The method used was: (1) presoak seed in water for four hours, (2) treat with 0.3% EMS for 16 hours, (3) rinse in water for 8 hours, (4) air-dry for four hours, and (5) plant the seed. Some of the harvested seed was further increased without selection for tolerance to imidazolinone herbicides. The harvested seed was planted and treated with 40 g/ha of imazamox. A total of 120 kg of seed was planted, resulting in approximately 2.4 million plants treated, assuming a kernel weight of 35 mg and 70% seedling emergence. The generation of seed screened ranged from M2 to M5, with over 72% of seed at least M3. Five plants were identified as tolerant, designated EM1 through EM5, and transplanted to a greenhouse for seed production. EM2 was increased under imidazolinone herbicide selection prior to initial field testing (Example 4).
(§2) The EM2 line tolerant to imazamox (Example 1) was evaluated at a single field location for various agronomic characteristics that could be affected by herbicide injury. The 1998 data are means of two replications. Yield data from 1999 and 2000 are means of four replications. The other data from 1999 are means of two replications.
(§3) The EM2 line was evaluated for overall crop injury at three rates of imazamox, three times during the growing season.

[2] = system: susceptible hexaploid check / susceptible wheat plants; test: Tolerance test, susceptible hexaploid check; assay type: in vivo, T. aestivum
From the text: In all the following discussion, the application rate of the imidazolinone herbicide imazamox that was used in the inheritance studies was 20 grams per hectare.
(§4) The breeding history of the lines tested was previously described (Example 2). […] The doubled haploid derived line P00.45, composed of EM2 in a hexaploid background, was tolerant to 20 g/ha imazamox as a parental check in allelism studies described in Example 3; all plants of the susceptible hexaploid check were killed at that rate.

[3] = system: susceptible durum line used as a check; test: Tolerance test, susceptible durum check; assay type: in vivo, T. turgidum ssp durum; settings: 80 g/h of imazamox
[4] = system: backcross-derived plants in populations P00.35 and P00.45; test: Segregation of backcross-derived plants P00.35 and P00.45; assay type: in vivo, T. aestivum; settings: 20 g/h of imazamox; single heterozygous tolerance gene
From the text: (§5) EMIMI is the designation of the T. monococcum EM2 source parent. Crocus is the designation of the T. aestivum ssp aestivum parent used. 605 florets of crocus were pollinated with EMIMI pollen, resulting in 84 F1 seed. 38,409 florets of the F1 plants were pollinated using Crocus pollen, resulting in 2 embryos which were embryo-rescued. The resultant BC1F1 plants were selfed to BC1F2 and treated with 20 g/ha of imazamox. […] Resistant plants were crossed by the bread wheat variety Tea1, representing the 3rd dose of bread wheat. Plants of the resultant line, with a pedigree of Crocus*2/EMIMI//CDC Tea1/3/ were crossed with either AC Elsa or AC Superb and coded respectively, 98PH8 (Elsa cross) and 98PH9 (Superb cross), 98PH8 was crossed an additional six times with AC Elsa and 98PH8 was crossed an additional six times with AC Superb. Two populations were coded as follows: • P00.35=98PH8/6*Elsa=Crocus*2/EM2//CDC Tea1/3/7*AC Elsa • P00.45=98PH9/6*Superb=Crocus*2/EM2//CDC Tea1/3/7*AC Superb. Segregation of the backcross-derived plants in both populations fit an expected 1:1 tolerant:susceptible single gene model when treated with 20 g/h of imazamox. […] Doubled haploids were produced from each population using the maize pollination method. Seven resistant DH lines were obtained from P00.35 and 78 resistant DH lines were obtained from P00.45.

[5] = system: line derived from the cross of 15A and 11A; test: Seedling injury rating, three-gene line; assay type: in vivo, wheat
Protocol: (§6) Four genotypes were tested for tolerance to two different rates of imazamox. Genotypes included an FS4 only line, BW755; Tea1 15A, previously described as having two independent loci for tolerance to Imi-herbicides; a double-haploid derived line of EM2+FS4, and a line derived from the cross of 15A and 11A, through conventional bulk selection of the most tolerant plants over successive generations at increasing rates of imazamox. Rates of imazamox included 200 and 600 grams per hectare. Seedling injury of the 18 to 25 plants per treatment per genotype was rated on a per plant basis using five categories ranging from death to no injury.

[6] = system: double-haploid derived line of EM2+FS4; test: Seedling injury rating, two-gene line EM2+FS4; assay type: in vivo, wheat
Protocol: as §6

[7] = system: Einkorn check (non-herbicide tolerant); test: Field evaluation of herbicide injury, Einkorn check; assay type: in vivo, Triticum monococcum
Protocol: as §2, §3

[8] = system: BC1F2 plants of Crocus*2/EMIMI; test: Herbicide treatment of BC1F2 plants (Crocus x EMIMI); assay type: in vivo, T. aestivum x T. monococcum; settings: 20 g/ha of imazamox, 24 plants treated
From the text: as §5

Tea1 15A = test: Seedling injury rating, two-gene line Tea1 15A; assay type: in vivo, wheat
Protocol: as §6

[9] = system: F2 population of Crocus*2/EM2//CDC Tea1/3/2*AC Superb crossed by AC Avonlea; test: Herbicide selection in F2 of EM2 conversion x AC Avonlea; assay type: in vivo, T. aestivum x T. turgidum; settings: at least a 20 g/h rate of imazamox
Protocol: (§7) T. aestivum was used as the bridging species to transfer the EM2 gene from T. monococcum to T. turgidum. In each generation, plants were treated with at least a 20 g/h rate of imazamox prior to selecting plants as parents. An intermediate T. aestivum conversion with the pedigree “Crocus*2/EM2//CDC Tea1/3/2*AC Superb” tolerant to imazamox was crossed by the durum line AC Avonlea. The resultant F1 plants were selfed to produce an F2 population, from which 52/390 plants were identified as resistant (no injury from herbicide application). Some of these were used as females and crossed by AC Avonlea. The resultant BC1F1 plants were again crossed by AC Avonlea. For the subsequent two generations, AC Avonlea was used as the female. The resultant line was designated 00DIMI#17 and had the pedigree: AC Avonlea*2/3/Crocus*2/EM2//CDC Tea1/3/2*AC Superb//3*AC Avonlea. This line was selfed to the F2, and F2 plants treated with 40 g/h of imazamox. Resistant F2 plants were advanced to the F4 generation.

[10] = system: P00.45 (EM2 in a hexaploid background); test: Tolerance of doubled haploid line P00.45 (parental check in allelism studies); assay type: in vivo, T. aestivum ssp aestivum; settings: 20 g/ha imazamox
From the text: as §5, with “P00.45. […]” for “P00.45.”

[11] = system: EMS-treated Triticum monococcum accession TM23; test: Selection of tolerant plants after EMS mutagenesis; assay type: in vivo; settings: 40 g/ha of imazamox, approximately 2.4 million plants treated
Protocol: as §1

BW755 (FS4 only line) = test: Seedling injury rating, one-gene line; assay type: in vivo, wheat; settings: 200 and 600 grams per hectare
Protocol: as §6

[12] = system: 00DIMI#17 (EM2 in durum background); test: Tolerance of EM2 durum recovery 00DIMI#17; assay type: in vivo, T. turgidum ssp durum
Protocol: as §7, §4

[13] = higher rate, 600 grams per hectare
[14] = lower rate, 200 grams per hectare

COCc1cnc(C2=NC(C)(C(C)C)C(=O)N2)c(C(=O)O)c1 (centres unmarked) [imazamox]
tolerance ([1]; 40 g/ha rate, field): excellent tolerance
overall crop injury ([1]; 1999, three times during the growing season): only slight injury
overall crop injury [1]; 2000: no injury
plant kill ([2]; 20 g/ha imazamox): killed
plant kill at the rate of the inheritance studies ([2]; 20 grams per hectare): sufficient to kill
plant kill [3]: killed
injury of plants scored as tolerant [4]: sustained some injury
plants killed ([5]; 200 and 600 grams per hectare): No plants were killed
seedling injury ([5]; 200 and 600 grams per hectare, line still segregating): some plants exhibiting injury at both rates
plants without injury ([5]; highest rate, 600 grams per hectare): approximately half the plants had no injury
plants killed ([6]; 200 and 600 grams per hectare): No plants were killed
seedling injury [6, 13]: all were injured
seedling injury [6, 14]: No injury
susceptibility of plants ([7]; 40 grams of imazamox, field): all plants dying
overall crop injury ([7]; 2000, non-herbicide tolerant check): virtually killed
fully resistant plants [8]: 11
plants that showed some injury [8]: 7
susceptible plants [8]: 6
plants killed (Tea1 15A; 200 and 600 grams per hectare): No plants were killed
seedling injury (Tea1 15A; [13]): all were injured
seedling injury (Tea1 15A; [14]): No injury
plants identified as resistant (no injury from herbicide application) [9]: 52/390
tolerance [10]: tolerant
plants identified as tolerant [11]: Five
plants killed (BW755 (FS4 only line)): No plants were killed
seedling injury (BW755 (FS4 only line)): injured at both rates
tolerance of plants ([12]; F4:5 lines, 80 g/h of imazamox): all plants were tolerant
susceptible plants ([12]; F4:5 lines, 124 plants treated with 80 g/h): no susceptible plants were found
survival of plants ([12]; F4 plants, 80 g/h imazamox): All 53 F4 plants tested survived
